Test results: patent US12077503B2, “Substituted cyclic amides and their use as herbicides” (FMC CORPORATION, priority 2015, dated 2024)
Like-named read-outs stand apart in the source and are kept apart here.

Key:
Format in all cases: in vivo
[1] = system: giant foxtail (Setaria faberii); test: Test A postemergence; conditions: Setaria faberi, post-emergence, 240 h, Postemergence; for pest or weed control at 125 g/ha: 125 g ai/ha; for pest or weed control at 500 g/ha: 500 g ai/ha, visual injury, 0 to 100 scale (0 no effect, 100 complete control), approx. 10 d
How it was run: (§1)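 Visual injury, scored on a 0–100 scale relative to untreated controls, was recorded about 10 d after application. Treatments were a preemergence soil spray over planted seeds or a postemergence spray on plants at the one- to two-leaf stage, 2 to 10 cm tall, all in loam soil–sand blend in the greenhouse.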

[2] = system: barnyardgrass (Echinochloa crus-galli); test: Test A postemergence; conditions: Echinochloa crus-galli, post-emergence, 240 h, Postemergence; for pest or weed control at 125 g/ha: 125 g ai/ha; for pest or weed control at 500 g/ha: 500 g ai/ha, visual injury, 0 to 100 scale (0 no effect, 100 complete control), approx. 10 d
How it was run: as §1

[3] = system: Kochia (Kochia scoparia); test: Test A postemergence; conditions: Bassia scoparia, post-emergence, 240 h, Postemergence; for pest or weed control at 125 g/ha: 125 g ai/ha; for pest or weed control at 500 g/ha: 500 g ai/ha, visual injury, 0 to 100 scale (0 no effect, 100 complete control), approx. 10 d
How it was run: as §1

[4] = system: ragweed (common ragweed, Ambrosia elatior); test: Test A postemergence; conditions: Ambrosia artemisiifolia, post-emergence, 240 h, Postemergence; for pest or weed control at 125 g/ha: 125 g ai/ha; for pest or weed control at 500 g/ha: 500 g ai/ha, visual injury, 0 to 100 scale (0 no effect, 100 complete control), approx. 10 d
How it was run: as §1

[5] = system: blackgrass (Alopecurus myosuroides); test: Test A postemergence; conditions: Alopecurus myosuroides, post-emergence, 240 h, Postemergence; for pest or weed control at 125 g/ha: 125 g ai/ha; for pest or weed control at 500 g/ha: 500 g ai/ha, visual injury, 0 to 100 scale (0 no effect, 100 complete control), approx. 10 d
How it was run: as §1

[6] = system: sedge, umbrella (small-flower umbrella sedge, Cyperus difformis); test: Test B flooded paddy test; conditions: Cyperus difformis, 360 h, Flood, 250 g ai/ha; visually evaluated after 13 to 15 d; read-out: Plant response rating, Sedge, Umbrella (0 to 100 scale where 0 is no effect and 100 is complete control)
How it was run: (§2)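 Compound goes directly into floodwater once pots are flooded 3 cm above soil, targeting plants at two leaves; the water depth is then held for the test duration. Plants sit 13–15 d in a greenhouse and are rated visually, 100 denoting complete control.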

[7] = system: ducksalad (Heteranthera limosa); test: Test B flooded paddy test; conditions: Heteranthera limosa, 360 h, Flood, 250 g ai/ha; visually evaluated after 13 to 15 d; read-out: Plant response rating, Ducksalad (0 to 100 scale where 0 is no effect and 100 is complete control)
How it was run: as §2

[8] = system: barnyardgrass (Echinochloa crus-galli); test: Test B flooded paddy test; conditions: Echinochloa crus-galli, 360 h, Flood, 250 g ai/ha; visually evaluated after 13 to 15 d; read-out: Plant response rating, Barnyardgrass (0 to 100 scale where 0 is no effect and 100 is complete control)
How it was run: as §2

[9] = system: rice (Oryra sativa); test: Test B flooded paddy test; conditions: Oryza sativa, 360 h, Flood, 250 g ai/ha; visually evaluated after 13 to 15 d; read-out: Plant response rating, Rice (0 to 100 scale where 0 is no effect and 100 is complete control)
How it was run: as §2

[10] = system: pigweed (Amaranthus retroflexus); test: Test A preemergence; conditions: Amaranthus retroflexus, pre-emergence, 240 h, 0 to 100 scale (0 no effect, 100 complete control), read-out: Plant response rating, Pigweed; for pest or weed control at 500 g/ha: 500 g ai/ha, preemergence; for pest or weed control at 125 g/ha: Preemergence, 125 g ai/ha
[11] = system: ryegrass, Italian (Italian ryegrass, Lolium multiflorum); test: Test A preemergence; conditions: Lolium multiflorum, pre-emergence, 240 h, 0 to 100 scale (0 no effect, 100 complete control), read-out: Plant response rating, Ryegrass, Italian; for pest or weed control at 500 g/ha: 500 g ai/ha, preemergence; for pest or weed control at 125 g/ha: Preemergence, 125 g ai/ha
How it was run: as §1

[12] = system: giant foxtail (Setaria faberii); test: Test A preemergence; conditions: Setaria faberi, pre-emergence, 240 h, 0 to 100 scale (0 no effect, 100 complete control), read-out: Plant response rating, Foxtail, Giant; for pest or weed control at 500 g/ha: 500 g ai/ha, preemergence; for pest or weed control at 125 g/ha: Preemergence, 125 g ai/ha
How it was run: as §1

[13] = system: barnyardgrass (Echinochloa crus-galli); test: Test A preemergence; conditions: Echinochloa crus-galli, pre-emergence, 240 h, 0 to 100 scale (0 no effect, 100 complete control), read-out: Plant response rating, Barnyardgrass; for pest or weed control at 500 g/ha: 500 g ai/ha, preemergence; for pest or weed control at 125 g/ha: Preemergence, 125 g ai/ha
How it was run: as §1

[14] = system: Kochia (Kochia scoparia); test: Test A preemergence; conditions: Bassia scoparia, pre-emergence, 240 h, 0 to 100 scale (0 no effect, 100 complete control), read-out: Plant response rating, Kochia; for pest or weed control at 500 g/ha: 500 g ai/ha, preemergence; for pest or weed control at 125 g/ha: Preemergence, 125 g ai/ha
How it was run: as §1

[15] = system: ragweed (common ragweed, Ambrosia elatior); test: Test A preemergence; conditions: Ambrosia artemisiifolia, pre-emergence, 240 h, 0 to 100 scale (0 no effect, 100 complete control), read-out: Plant response rating, Ragweed; for pest or weed control at 500 g/ha: 500 g ai/ha, preemergence; for pest or weed control at 125 g/ha: Preemergence, 125 g ai/ha
How it was run: as §1

[16] = visual rating about 10 d after treatment, read-out: Foxtail, Giant plant response rating (0 to 100 scale)
[17] = read-out: Plant response rating, Foxtail, Giant
[18] = visual rating about 10 d after treatment, read-out: Barnyardgrass plant response rating (0 to 100 scale, 0 no effect, 100 complete control)
[19] = read-out: Plant response rating, Barnyardgrass
[20] = visual rating about 10 d after treatment, read-out: Kochia plant response rating (0 to 100 scale)
[21] = read-out: Plant response rating, Kochia
[22] = visual rating about 10 d after treatment, read-out: Ragweed plant response rating (0 to 100 scale)
[23] = read-out: Plant response rating, Ragweed
[24] = visual rating about 10 d after treatment, read-out: Blackgrass plant response rating (0 to 100 scale)
[25] = read-out: Plant response rating, Blackgrass

Compound | pest or weed control at 500 g/ha [1, 17] | pest or weed control at 500 g/ha [2, 19] | pest or weed control at 500 g/ha [3, 21] | pest or weed control at 500 g/ha [4, 23] | pest or weed control at 500 g/ha [5, 25] | pest or weed control at 250 g/ha [6] | pest or weed control at 250 g/ha [7] | pest or weed control at 250 g/ha [8] | pest or weed control at 250 g/ha [9] | pest or weed control at 500 g/ha [10] | pest or weed control at 125 g/ha [10] | pest or weed control at 500 g/ha [11] | pest or weed control at 125 g/ha [11] | pest or weed control at 500 g/ha [12] | pest or weed control at 125 g/ha [12] | pest or weed control at 500 g/ha [13] | pest or weed control at 125 g/ha [13] | pest or weed control at 500 g/ha [14] | pest or weed control at 125 g/ha [14] | pest or weed control at 500 g/ha [15] | also measured
N#Cc1cc([C@H]2CNC(=O)[C@]2(O)C(=O)Nc2cccc(F)c2F)ccc1F [Compound 1374] | 0% | 50% | 0% | 0% | 0% | 0% | 0% | 0% | 20% | 0% | 0% | 0% | 0% | 0% | 0% | 0% | 0% | 0% | 0% | 0% | pest or weed control at 125 g/ha [1, 16]: 0%; pest or weed control at 125 g/ha [2, 18]: 0%; pest or weed control at 125 g/ha [3, 20]: 0%; pest or weed control at 125 g/ha [4, 22]: 0%; pest or weed control at 125 g/ha [5, 24]: 0%; pest or weed control at 125 g/ha [15]: 0%
CN1C[C@H](c2ccc(C(F)(F)F)cc2)[C@@H](C(=O)Nc2ccccc2C#N)C1=O [Compound 1379] | 80% | 100% | 60% | 60% | 30% | 0% | 100% | 55% | 0% | 90% | 80% | 50% | 20% | 100% | 100% | 100% | 100% | 90% | 90% | 90% | pest or weed control at 125 g/ha [1, 16]: 80%; pest or weed control at 125 g/ha [2, 18]: 100%; pest or weed control at 125 g/ha [3, 20]: 30%; pest or weed control at 125 g/ha [4, 22]: 30%; pest or weed control at 125 g/ha [5, 24]: 20%; pest or weed control at 125 g/ha [15]: 70%
CN1CC[C@H](c2cccc(C(F)(F)F)c2)[C@@H](C(=O)Nc2ccc(F)c(F)c2F)C1=O [Compound 1395] | 90% | 90% | 0% | 0% | 0% | 0% | 80% | 90% | 10% | 0% | 0% | 40% | 50% | 90% | 90% | 90% | 90% | 0% | 0% | 0% | pest or weed control at 125 g/ha ([1]; visual injury after approx. 10 d, 0 to 100 scale, 0 no effect, 100 complete control, read-out: Plant response rating, Foxtail, Giant): 90%; pest or weed control at 125 g/ha ([2]; visual injury after approx. 10 d, 0 to 100 scale, 0 no effect, 100 complete control, read-out: Plant response rating, Barnyardgrass): 90%; pest or weed control at 125 g/ha ([3]; visual injury after approx. 10 d, 0 to 100 scale, 0 no effect, 100 complete control, read-out: Plant response rating, Kochia): 0%; pest or weed control at 125 g/ha ([4]; visual injury after approx. 10 d, 0 to 100 scale, 0 no effect, 100 complete control, read-out: Plant response rating, Ragweed): 0%; pest or weed control at 125 g/ha ([5]; visual injury after approx. 10 d, 0 to 100 scale, 0 no effect, 100 complete control, read-out: Plant response rating, Blackgrass): 70%; pest or weed control at 125 g/ha [15]: 0%
